Measured values: US8227469B2, “Vanilloid receptor ligands and their use in treatments” (Amgen Inc., priority 2004, dated 2012)

Row | melting point | Compound
1 | 206 to 207 °C | C[C@@H](c1ccc(F)cc1)N1CCN(c2cc(Nc3ccc4cccnc4c3)ncn2)CC1 [Example 5, (6-{4-[(1S)-1-(4-Fluorophenyl)-ethyl]-piperazin-1-yl}-pyrimidin-4-yl)-quinolin-7-yl-amine]
2 | > 200 °C (dec.) | CC(=O)Nc1nc2c(Oc3cc(C4=CCC(C(C)(C)C)CC4)ncn3)cccc2s1 (stereo not drawn) [Example 8, N-{4-[6-(4-tert-Butyl-cyclohex-1-enyl)-pyrimidin-4-yloxy]-benzothiazol-2-yl}-acetamide]
3 | 206 to 207 °C | C[C@H](c1ccc(F)cc1)N1CCN(c2cc(Nc3ccc4cccnc4c3)ncn2)CC1 [Example 4, (6-{4-[(1R)-1-(4-Fluorophenyl)-ethyl]-piperazin-1-yl}-pyrimidin-4-yl)-quinolin-7-yl-amine]
